# Experimental data: article PMC8956723, “Secretory quality control constrains functional selection-associated protein structure innovation” (Communications Biology, 2022)
# What was measured:
# Assay in all cases: ELISA, CRP binding to immobilised PC-KLH
# Conditions in all cases: PC presented as immobilised KLH conjugate, not free ligand; 2 mM CaCl2, TBS pH 7.4; calcium-dependent
# rat CRP = target: T1, rat CRP (Rattus norvegicus, UniProt P48199)
# T1 construct: signal peptide replaced by alpha-factor signal, N-terminal 6xHis tag kept; secreted from Pichia pastoris GS115; homopentamer
# T1 sequence (P48199 20-230): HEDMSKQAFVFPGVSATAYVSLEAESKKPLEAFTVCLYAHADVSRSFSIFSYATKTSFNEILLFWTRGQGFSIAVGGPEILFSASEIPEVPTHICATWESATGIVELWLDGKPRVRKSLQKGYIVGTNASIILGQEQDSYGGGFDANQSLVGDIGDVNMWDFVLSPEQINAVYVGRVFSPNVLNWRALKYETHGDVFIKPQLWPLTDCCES
# human CRP = target: T2, human CRP (Homo sapiens, UniProt P02741)
# T2 sequence (P02741 19-224): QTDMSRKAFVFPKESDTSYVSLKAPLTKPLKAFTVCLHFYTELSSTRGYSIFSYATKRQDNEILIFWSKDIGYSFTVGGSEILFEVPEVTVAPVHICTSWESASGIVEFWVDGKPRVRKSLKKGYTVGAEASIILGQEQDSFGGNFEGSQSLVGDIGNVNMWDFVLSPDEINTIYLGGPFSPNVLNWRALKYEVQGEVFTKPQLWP
# mouse CRP = target: T3, mouse CRP (Mus musculus, UniProt P14847)
# T3 construct: signal peptide replaced by alpha-factor signal, N-terminal 6xHis tag kept; secreted from Pichia pastoris GS115; homopentamer
# T3 sequence (P14847 20-225): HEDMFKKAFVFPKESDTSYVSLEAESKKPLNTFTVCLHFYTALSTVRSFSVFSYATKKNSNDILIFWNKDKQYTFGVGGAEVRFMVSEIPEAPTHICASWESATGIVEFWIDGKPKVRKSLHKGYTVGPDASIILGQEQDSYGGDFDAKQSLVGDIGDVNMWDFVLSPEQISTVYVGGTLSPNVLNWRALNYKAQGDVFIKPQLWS
compound,measurement,setting,value
C[N+](C)(C)CCOP(=O)([O-])O [phosphorylcholine],"ELISA, CRP binding to immobilised PC-KLH",rat CRP,"mouse, rat, and human CRP also showed a comparable capacity to bind PC"
same,"ELISA, CRP binding to immobilised PC-KLH",human CRP,"mouse, rat, and human CRP also showed a comparable capacity to bind PC"
same,"ELISA, CRP binding to immobilised PC-KLH",mouse CRP,"mouse, rat, and human CRP also showed a comparable capacity to bind PC"
